For one assay, the target named is T1, EphA8(h) (Homo sapiens, UniProt P29322).
T1 construct: purchased Upstate Biotechnology (Dundee, UK), KinaseProfiler service
T1 sequence (P29322 28-1005): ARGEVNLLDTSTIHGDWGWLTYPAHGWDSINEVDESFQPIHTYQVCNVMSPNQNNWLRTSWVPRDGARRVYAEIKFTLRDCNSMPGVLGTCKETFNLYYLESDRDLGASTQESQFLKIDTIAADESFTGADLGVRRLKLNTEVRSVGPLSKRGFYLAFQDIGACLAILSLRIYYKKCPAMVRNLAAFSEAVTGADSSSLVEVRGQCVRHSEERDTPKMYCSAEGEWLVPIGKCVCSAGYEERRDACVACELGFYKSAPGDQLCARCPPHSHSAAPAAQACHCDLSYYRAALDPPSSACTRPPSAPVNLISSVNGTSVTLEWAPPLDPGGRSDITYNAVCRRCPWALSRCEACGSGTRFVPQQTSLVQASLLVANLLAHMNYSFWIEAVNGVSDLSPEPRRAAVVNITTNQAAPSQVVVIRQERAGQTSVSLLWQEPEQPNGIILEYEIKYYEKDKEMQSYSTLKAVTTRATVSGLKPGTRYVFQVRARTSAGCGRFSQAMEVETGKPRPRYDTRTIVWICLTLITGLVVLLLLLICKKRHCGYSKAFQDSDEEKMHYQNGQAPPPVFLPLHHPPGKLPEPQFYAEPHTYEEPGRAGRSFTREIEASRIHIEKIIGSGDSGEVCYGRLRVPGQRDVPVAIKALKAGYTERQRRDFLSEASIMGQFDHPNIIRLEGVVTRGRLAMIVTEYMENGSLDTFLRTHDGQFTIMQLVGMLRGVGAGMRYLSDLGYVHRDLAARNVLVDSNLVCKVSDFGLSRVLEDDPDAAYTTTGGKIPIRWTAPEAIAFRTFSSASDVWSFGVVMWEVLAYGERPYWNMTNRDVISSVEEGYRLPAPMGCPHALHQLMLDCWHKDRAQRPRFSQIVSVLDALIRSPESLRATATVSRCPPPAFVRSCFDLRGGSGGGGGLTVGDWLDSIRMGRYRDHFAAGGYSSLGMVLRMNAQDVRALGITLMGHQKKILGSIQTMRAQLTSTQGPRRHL
Briefly: KinaseProfiler assay (Upstate), EphA8. The assay is classed as biochemical. How it is done:
(§1) Further enzyme assays were conducted at Upstate Biotechnology (Dundee, UK) in the KinaseProfiler™ Assay system.
(§2) The general protocol is as follows. All kinases are pre-diluted to a 10× working concentration prior to addition into the assay. The composition of the dilution buffer for the kinases is 20 mM MOPS pH 7.0, 1 mM EDTA, 0.1% β-mercaptoethanol, 0.01% Brij-35, 5% glycerol, 1 mg/ml BSA. All substrates are dissolved and diluted to working stocks in de-ionised water.

The target in another assay is T2, EphA3(h) (Homo sapiens, UniProt P29320).
T2 construct: purchased Upstate Biotechnology (Dundee, UK), KinaseProfiler service
T2 sequence (P29320 21-983): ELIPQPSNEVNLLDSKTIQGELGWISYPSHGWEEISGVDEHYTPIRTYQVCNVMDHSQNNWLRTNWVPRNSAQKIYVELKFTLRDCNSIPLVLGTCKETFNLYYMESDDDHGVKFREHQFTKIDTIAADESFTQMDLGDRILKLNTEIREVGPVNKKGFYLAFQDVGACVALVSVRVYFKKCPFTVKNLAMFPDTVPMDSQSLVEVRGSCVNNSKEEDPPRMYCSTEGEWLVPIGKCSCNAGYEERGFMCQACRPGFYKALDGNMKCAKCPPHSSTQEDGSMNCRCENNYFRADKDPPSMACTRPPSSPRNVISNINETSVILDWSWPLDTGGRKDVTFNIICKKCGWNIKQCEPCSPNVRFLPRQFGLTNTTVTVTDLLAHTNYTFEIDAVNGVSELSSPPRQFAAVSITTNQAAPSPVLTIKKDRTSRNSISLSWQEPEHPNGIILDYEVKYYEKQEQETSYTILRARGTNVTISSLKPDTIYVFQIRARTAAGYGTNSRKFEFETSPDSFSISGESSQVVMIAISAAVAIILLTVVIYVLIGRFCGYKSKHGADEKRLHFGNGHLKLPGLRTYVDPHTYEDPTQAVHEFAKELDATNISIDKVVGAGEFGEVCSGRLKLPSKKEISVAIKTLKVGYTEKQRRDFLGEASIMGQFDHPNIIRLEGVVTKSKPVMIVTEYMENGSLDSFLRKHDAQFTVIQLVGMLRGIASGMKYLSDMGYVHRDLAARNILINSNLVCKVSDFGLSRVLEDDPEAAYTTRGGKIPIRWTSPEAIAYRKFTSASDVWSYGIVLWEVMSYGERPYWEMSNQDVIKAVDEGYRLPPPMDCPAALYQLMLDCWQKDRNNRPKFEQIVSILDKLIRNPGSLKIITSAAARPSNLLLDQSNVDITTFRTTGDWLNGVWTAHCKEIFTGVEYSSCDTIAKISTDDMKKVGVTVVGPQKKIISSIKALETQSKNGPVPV
Briefly: KinaseProfiler assay (Upstate), EphA3. It counts as biochemical. The procedure:
as §1, §2
In a final reaction volume of 25 EphA3 (h) (5-10 mU) is incubated with 8 mM MOPS pH 7.0, 0.2 mM EDTA, 0.1 mg/ml poly(Glu, Tyr) 4:1, 10 mM MgAcetate and [γ-33P-ATP] (specific activity approx. 500 cpm/pmol, concentration as required). The reaction is initiated by the addition of the MgATP mix. After incubation for 40 minutes at room temperature, the reaction is stopped by the addition of 5 μl of a 3% phosphoric acid solution. 10 μl of the reaction is then spotted onto a Filtermat A and washed three times for 5 minutes in 75 mM phosphoric acid and once in methanol prior to drying and scintillation counting.

Molecules are shown by their SMILES.

Usually inhibition stands for the drop in the measured response relative to a control, in per cent. Regarding `Cc1cccc(C(=O)Nc2ccc(C)c([C@H](C)Nc3cncc(Cl)n3)c2)c1` [Compound 168], the inhibition at 0.1 µM on EphA8(h) is 91%; against EphA3(h), 69%. For the same molecule, the inhibition at 1 µM turned out to be 102% at EphA8(h) and 98% against EphA3(h).
Regarding `Cc1cccc(C(=O)Nc2cccc([C@H](C)Nc3cncc(-c4ccc(S(N)(=O)=O)cc4)n3)c2)c1` [Compound 77], at EphA8(h), the inhibition at 0.1 µM was 66% and the inhibition at 1 µM turned out to be 99%. Moreover, at EphA3(h), the inhibition at 0.1 µM was determined as 17% and the inhibition at 1 µM was 70%.
For `C[C@H](Nc1cncc(-c2cccc(N3CCOCC3)c2)n1)c1cccc(NC(=O)c2cccc(C(F)(F)F)c2)c1` [Compound 149], on EphA8(h), the inhibition at 0.1 µM is 81% and the inhibition at 1 µM came to 103%. Also, on EphA3(h), the inhibition at 0.1 µM was 46% and the inhibition at 1 µM was 94%.
On the same counts, the results for `Cc1cccc(C(=O)Nc2cccc([C@H](C)Nc3cncc(-c4cccc(N5CCOCC5)c4)n3)c2)c1` [Compound 147] are 71%, 98%, 44% and 91%.
Turning to `C[C@H](Nc1cncc(Cl)n1)c1cccc(NC(=O)c2cccc(C(F)(F)F)c2)c1` [Compound 114, (S)—N-(3-(1-(6-chloropyrazin-2-ylamino)ethyl)phenyl)-3-(trifluoromethyl)benzamide], on EphA8(h), the inhibition at 0.1 µM was 67% and the inhibition at 1 µM was determined as 97%. At EphA3(h), the inhibition at 0.1 µM amounted to 24% and the inhibition at 1 µM came out at 92%.
`C[C@H](Nc1cncc(-c2ccc(N3CCN(C)CC3)cc2)n1)c1cccc(NC(=O)c2cccc(C(F)(F)F)c2)c1` [Compound 148]: the inhibition at 0.1 µM at EphA8(h) was determined as 81%; at EphA3(h), 79%. In addition, the inhibition at 1 µM against EphA8(h) is 100%; at EphA3(h), 99%.
For `Cc1cccc(C(=O)Nc2cccc([C@H](C)Nc3cncc(C(N)=O)n3)c2)c1` [Compound 133, (S)-6-(1-(3-(3-methylbenzamido)phenyl)ethylamino)pyrazine-2-carboxamide], in that order: 7%, -4%, 64% and 34%.
`Cc1cccc(C(=O)Nc2cccc([C@H](C)Nc3cncc(-n4ccnc4)n3)c2)c1` [Compound 143, (S)—N-(3-(1-(6-(1H-imidazol-1-yl)pyrazin-2-ylamino)ethyl)phenyl)-3-methylbenzamide]: on EphA8(h), the inhibition at 0.1 µM came to 30% and the inhibition at 1 µM is 82%. Besides, at EphA3(h), the inhibition at 0.1 µM was 0% and the inhibition at 1 µM turned out to be 58%.
On the same counts, the results for `Cc1cccc(C(=O)Nc2cccc([C@H](C)Nc3cncc(-c4ccc(N5CCN(C)CC5)cc4)n3)c2)c1` [Compound 129] are 42%, 90%, 18% and 76%.

Values taken from patent US9029386B2, “Pyridine derivatives useful as kinase inhibitors” (YM Biosciences Australia Pty Ltd, priority 2006, dated 2015).
